Experimental data taken from paper PMC3722118, “Hellebrin and its aglycone form hellebrigenin display similar in vitro growth inhibitory effects in cancer cells and binding profiles to the alpha subunits of the Na^+/K^+-ATPase” (Molecular Cancer, 2013).

System: U373 GBM cells
Conditions: 10 nM
Experimental: Computer-assisted phase contrast microscopy (quantitative videomicroscopy) analyses were used to morphologically visualize the effects induced by hellebrin (data not shown) and hellebrigenin (Figure 5) in human U373 GBM cells.
Figure 5 Computer-assisted phase-contrast microscopy (quantitative videomicroscopy) illustrations of human U373 glioblastoma cells treated with 10 nM hellebrigenin for 72 h. […] Cells were not starved during the experiments. The images provided here are representative images obtained from triplicates in each experimental condition.

## C[C@]12CC[C@H]3[C@@H](CC[C@]4(O)C[C@@H](O)CC[C@]34C=O)[C@@]1(O)CC[C@@H]2c1ccc(=O)oc1 [Hellebrigenin]
72 h of treatment
  U373 GBM cells died: approximately 50%
Up to 72 h
  cytotoxic versus cytostatic nature (morphological analyses): cytotoxic compound and not a cytostatic one
